Measurements: ChEMBL document CHEMBL5375978, “Harnessing the Reactivity of Duclauxin toward Obtaining hPTP1B1-400 Inhibitors” (J Med Chem, 2023)
The source made the active and inactive calls. The rule behind the calls is not given here.

Experiments:
[1] = Acute toxicity in Swiss Webster mouse assessed as sedation at 30 to 300 mg/kg, po and measured for 2 hrs; assay type: organism-based; conditions: in vivo, dose 30-300 mg/kg
[2] = Acute toxicity in Swiss Webster mouse assessed as animal death at 30 to 300 mg/kg, po and measured after 14 days; assay type: organism-based; conditions: in vivo, 336 h, dose 30-300 mg/kg, time 14 day
[3] = Acute toxicity in Swiss Webster mouse assessed as ataxia at 30 to 300 mg/kg, po and measured for 2 hrs; assay type: organism-based; conditions: in vivo, dose 30-300 mg/kg
[4] = biological target: T1, Tyrosine-protein phosphatase non-receptor type 1 (Homo sapiens) (UniProt P18031); experiment: Binding affinity to wild type N-terminal 6 his tagged human PTP1B (1 to 400 residues) expressed in Escherichia coli (Rosetta, DE3) assessed as affinity constant by fluorescence based analysis
T1 sequence (whole entry): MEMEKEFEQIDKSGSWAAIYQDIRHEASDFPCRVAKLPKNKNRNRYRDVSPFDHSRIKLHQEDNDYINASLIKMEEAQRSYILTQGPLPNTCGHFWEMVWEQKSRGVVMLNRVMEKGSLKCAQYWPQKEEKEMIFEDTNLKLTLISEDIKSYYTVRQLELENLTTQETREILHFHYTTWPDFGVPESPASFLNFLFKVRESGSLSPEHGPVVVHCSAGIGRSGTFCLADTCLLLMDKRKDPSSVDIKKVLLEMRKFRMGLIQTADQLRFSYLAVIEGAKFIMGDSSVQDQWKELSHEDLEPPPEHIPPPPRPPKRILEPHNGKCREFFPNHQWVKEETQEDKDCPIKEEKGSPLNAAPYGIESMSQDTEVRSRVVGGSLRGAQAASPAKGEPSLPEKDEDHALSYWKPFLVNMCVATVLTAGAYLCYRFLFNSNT

[5] = Acute toxicity in Swiss Webster mouse assessed as lethal dose; conditions: in vivo
Mus musculus [6] = species: Mus musculus; experiment: Hypoglycemic activity in Swiss Webster mouse assessed as reduction in blood glucose level preincubated for 30 mins followed by insulin dose and measured at upto 120 mins by insulin tolerance test; assay type: functional, organism-based; conditions: time <= 150.0 min
[7] = Acute toxicity in Swiss Webster mouse assessed as change in heart rate at 30 to 300 mg/kg, po and measured for 2 hrs; assay type: organism-based; conditions: in vivo, dose 30-300 mg/kg
[8] = biological target: T2, Tyrosine-protein phosphatase non-receptor type 1 (Homo sapiens, UniProt P18031); experiment: Inhibition of wild type N-terminal 6 his tagged human PTP1B (1 to 400 residues) expressed in Escherichia coli (Rosetta, DE3) using p-NPP as substrate preincubated for 10 mins followed by substrate addition and measured after 20 mins by absorbance based analysis
T2 sequence (P18031 whole entry): T1 sequence (whole entry)

[9] = Acute toxicity in Swiss Webster mouse assessed as macroscopic damage in internal organs at 30 to 300 mg/kg, po and measured after 14 days; assay type: organism-based; conditions: in vivo, 336 h, dose 30-300 mg/kg, time 14 day
[10] = Acute toxicity in Swiss Webster mouse assessed as loss of motor activity at 30 to 300 mg/kg, po and measured for 2 hrs; assay type: organism-based; conditions: in vivo, dose 30-300 mg/kg
[11] = Acute toxicity in Swiss Webster mouse assessed as animal death at 30 to 300 mg/kg, po and measured for 2 hrs; assay type: organism-based; conditions: in vivo, dose 30-300 mg/kg
Mus musculus [12] = experiment: Hypoglycemic activity in Swiss Webster mouse assessed as reduction in blood glucose level at 3 to 30 mg/kg preincubated for 30 mins followed by insulin dose and measured after 60 to 120 mins by insulin tolerance test; assay type: functional, organism-based; conditions: dose 3-30 mg/kg, time 90-150 min
[13] = Acute toxicity in Swiss Webster mouse assessed as hyperactivity at 30 to 300 mg/kg, po and measured for 2 hrs; assay type: organism-based; conditions: in vivo, dose 30-300 mg/kg
[14] = Acute toxicity in Swiss Webster mouse assessed as effect on body weight loss at 30 to 300 mg/kg, po and measured after 14 days; assay type: organism-based; conditions: in vivo, 336 h, dose 30-300 mg/kg, time 14 day
[15] = Acute toxicity in Swiss Webster mouse assessed as animal death at 10 to 500 mg/kg, po and measured for 2 hrs; assay type: organism-based; conditions: in vivo, dose 10-500 mg/kg
[16] = Acute toxicity in Swiss Webster mouse assessed as animal death at 10 to 500 mg/kg, po and measured after 14 days; assay type: organism-based; conditions: in vivo, 336 h, dose 10-500 mg/kg, time 14 day
[17] = Acute toxicity in Swiss Webster mouse assessed as macroscopic damage in internal organs at 10 to 500 mg/kg, po and measured after 14 days; assay type: organism-based; conditions: in vivo, 336 h, dose 10-500 mg/kg, time 14 day
[18] = Acute toxicity in Swiss Webster mouse assessed as change in heart rate at 10 to 500 mg/kg, po and measured for 2 hrs; assay type: organism-based; conditions: in vivo, dose 10-500 mg/kg
[19] = Acute toxicity in Swiss Webster mouse assessed as effect on body weight loss at 10 to 500 mg/kg, po and measured after 14 days; assay type: organism-based; conditions: in vivo, 336 h, dose 10-500 mg/kg, time 14 day
[20] = Acute toxicity in Swiss Webster mouse assessed as hyperactivity at 10 to 500 mg/kg, po and measured for 2 hrs; assay type: organism-based; conditions: in vivo, dose 10-500 mg/kg
[21] = Acute toxicity in Swiss Webster mouse assessed as loss of motor activity at 10 to 500 mg/kg, po and measured for 2 hrs; assay type: organism-based; conditions: in vivo, dose 10-500 mg/kg
[22] = Acute toxicity in Swiss Webster mouse assessed as sedation at 10 to 500 mg/kg, po and measured for 2 hrs; assay type: organism-based; conditions: in vivo, dose 10-500 mg/kg
[23] = Acute toxicity in Swiss Webster mouse assessed as ataxia at 10 to 500 mg/kg, po and measured for 2 hrs; assay type: organism-based; conditions: in vivo, dose 10-500 mg/kg

CC(=O)O[C@H]1[C@@H]2C(=O)c3c(C)cc(O)c4c3[C@@]1(COC4=O)C1=C2c2c(C)cc(O)c3c(=O)n(-c4ccc([N+](=O)[O-])cc4)cc(c23)C1=O
Activity [1]: Non-Toxic
Activity [2]: Non-Toxic
Activity [3]: Non-Toxic
Ka [4]: 2.9 10^5/M
LD50 [5]: 300 mg/kg
Activity (Mus musculus [6]): Dose-Dependent Effect
Activity [7]: Non-Toxic
IC50 [8]: 3.1 µM
Activity [9]: Non-Toxic
Activity [10]: Non-Toxic
Activity [11]: Non-Toxic
Activity (Mus musculus [12]): Active
Activity [13]: Non-Toxic
Activity [14]: Non-Toxic

CO[C@@]12c3c(C)cc(O)c4c(=O)occ(c34)C(=O)[C@@H]1[C@]13COC(=O)c4c(O)cc(C)c(c41)C(=O)[C@H]2[C@@H]3OC(C)=O
Activity [15]: Non-Toxic
Ka [4]: 2 10^5/M
Activity [16]: Non-Toxic
LD50 [5]: 500 mg/kg
Activity [17]: Non-Toxic
IC50 [8]: 35.6 µM
Activity [18]: Non-Toxic
Activity [19]: Non-Toxic
Activity [20]: Non-Toxic
Activity [21]: Non-Toxic
Activity [22]: Non-Toxic
Activity [23]: Non-Toxic
